# Assay results taken from PubChem BioAssay AID248 (DTP/NCI, 2004).
# “And” between values parts separate entries of the source, which are not always exact repeats. Equal entries are not always repeated. Toxic doses and inconclusive results are not listed.
# System: L1210 leukemia ip in BDF1 mice, survival T/C
# Experiment: NCI In Vivo Anticancer Drug Screen. Data for tumor model L1210 Leukemia (intraperitoneal) in B6D2F1 (BDF1) mice
# Settings: endpoint: mean survival time, higher = longer survival
# Procedure, shortened: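 Tumor cells were implanted, animals were treated, and survival was followed. The result divides the treated measurement by the vehicle-control measurement.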
# [1] = dose: 100.0 mg/kg/injection, schedule: Q01DX009 (ip), vehicle: saline with Tween-80
# [2] = dose: 200.0 mg/kg/injection, schedule: Q01DX009 (ip), vehicle: saline with Tween-80
# [3] = dose: 100.0 mg/kg/injection, schedule: Q01DX009 (ip), vehicle: Klucel (hydroxypropylcellulose) (HPC)
# [4] = dose: 200.0 mg/kg/injection, schedule: Q01DX009 (ip), vehicle: Klucel (hydroxypropylcellulose) (HPC)
# [5] = dose: 400.0 mg/kg/injection, schedule: Q01DX009 (ip), vehicle: Klucel (hydroxypropylcellulose) (HPC)
# [6] = dose: 400.0 mg/kg/injection, schedule: Q01DX001 (ip), vehicle: carboxymethylcellulose (CMC)
# [7] = dose: 100.0 mg/kg/injection, schedule: Q01DX001 (ip), vehicle: carboxymethylcellulose (CMC)
# [8] = dose: 200.0 mg/kg/injection, schedule: Q01DX001 (ip), vehicle: carboxymethylcellulose (CMC)
smiles,measurement,setting,value
O=S(Cc1ncc2cnccn12)c1ccccc1 (stereo not given),T/C,"dose: 50.0 mg/kg/injection, schedule: Q01DX005 (ip), vehicle: saline",110 % of control
same,T/C,"dose: 100.0 mg/kg/injection, schedule: Q01DX005 (ip), vehicle: saline",104 % of control
same,T/C,"dose: 100.0 mg/kg/injection, schedule: Q04DX003 (ip), vehicle: saline",101 % of control
same,T/C,"dose: 200.0 mg/kg/injection, schedule: Q01DX005 (ip), vehicle: saline",104 % of control
same,T/C,"dose: 200.0 mg/kg/injection, schedule: Q04DX003 (ip), vehicle: saline",105 % of control
same,T/C,"dose: 400.0 mg/kg/injection, schedule: Q01DX005 (ip), vehicle: saline",105 % of control
same,T/C,"dose: 400.0 mg/kg/injection, schedule: Q04DX003 (ip), vehicle: saline",105 % of control
O=C(OC1CCCC1c1ccccc1)c1cccc([N+](=O)[O-])c1 (stereo not given),T/C,"dose: 50.0 mg/kg/injection, schedule: Q01DX009 (ip), vehicle: saline with Tween-80",90 % of control
same,T/C,[1],90 % of control
same,T/C,[2],87 % of control
Nc1nnco1,T/C,"dose: 222.0 mg/kg/injection, schedule: Q01DX Z (ip), vehicle: saline",97 % of control
same,T/C,"dose: 333.0 mg/kg/injection, schedule: Q01DX Z (ip), vehicle: saline",108 % of control
same,T/C,"dose: 500.0 mg/kg/injection, schedule: Q01DX Z (ip), vehicle: saline",97 % of control
COC(=O)CNc1ccc(S(=O)(=O)c2ccc(N)cc2)cc1,T/C,[3],107 % of control
same,T/C,"dose: 100.0 mg/kg/injection, schedule: Q04DX003 (ip), vehicle: Klucel (hydroxypropylcellulose) (HPC)",97 % of control
same,T/C,[4],92 % of control
same,T/C,"dose: 200.0 mg/kg/injection, schedule: Q04DX003 (ip), vehicle: Klucel (hydroxypropylcellulose) (HPC)",101 % of control
same,T/C,[5],88 % of control
same,T/C,"dose: 400.0 mg/kg/injection, schedule: Q04DX003 (ip), vehicle: Klucel (hydroxypropylcellulose) (HPC)",97 % of control
O=NN(CCCl)C(=O)Nc1ccc2c(c1)-c1ccccc1C2,T/C,"dose: 118.0 mg/kg/injection, schedule: Q01DX001 (ip), vehicle: carboxymethylcellulose (CMC)",121 % of control
same,T/C,"dose: 118.0 mg/kg/injection, schedule: Q01DX009 (ip), vehicle: carboxymethylcellulose (CMC)",188 % of control and 196 % of control
same,T/C,"dose: 177.0 mg/kg/injection, schedule: Q01DX009 (ip), vehicle: carboxymethylcellulose (CMC)",122 % of control
same,T/C,"dose: 266.0 mg/kg/injection, schedule: Q01DX009 (ip), vehicle: carboxymethylcellulose (CMC)",88 % of control
same,T/C,[6],159 % of control
same,T/C,"dose: 400.0 mg/kg/injection, schedule: Q01DX009 (ip), vehicle: carboxymethylcellulose (CMC)",92 % of control and 113 % of control
same,T/C,"dose: 600.0 mg/kg/injection, schedule: Q01DX001 (ip), vehicle: carboxymethylcellulose (CMC)",150 % of control
Oc1ccc2ccccc2c1N=Nc1ccc(F)cc1,T/C,"dose: 25.0 mg/kg/injection, schedule: Q01DX015 (ip), vehicle: saline",101 % of control
same,T/C,"dose: 50.0 mg/kg/injection, schedule: Q01DX015 (ip), vehicle: saline",96 % of control
same,T/C,"dose: 60.0 mg/kg/injection, schedule: Q01DX015 (ip), vehicle: carboxymethylcellulose (CMC)",109 % of control
same,T/C,[7],92 % of control
same,T/C,"dose: 100.0 mg/kg/injection, schedule: Q01DX009 (ip), vehicle: carboxymethylcellulose (CMC)",95 % of control
same,T/C,"dose: 100.0 mg/kg/injection, schedule: Q01DX015 (ip), vehicle: saline",96 % of control
same,T/C,"dose: 100.0 mg/kg/injection, schedule: Q04DX003 (ip), vehicle: carboxymethylcellulose (CMC)",114 % of control
same,T/C,"dose: 120.0 mg/kg/injection, schedule: Q01DX015 (ip), vehicle: carboxymethylcellulose (CMC)",104 % of control
same,T/C,[8],92 % of control
same,T/C,"dose: 200.0 mg/kg/injection, schedule: Q01DX009 (ip), vehicle: carboxymethylcellulose (CMC)",95 % of control
same,T/C,"dose: 200.0 mg/kg/injection, schedule: Q01DX015 (ip), vehicle: saline",101 % of control
same,T/C,"dose: 200.0 mg/kg/injection, schedule: Q04DX003 (ip), vehicle: carboxymethylcellulose (CMC)",97 % of control
same,T/C,"dose: 240.0 mg/kg/injection, schedule: Q01DX015 (ip), vehicle: carboxymethylcellulose (CMC)",95 % of control
same,T/C,[6],89 % of control
same,T/C,"dose: 400.0 mg/kg/injection, schedule: Q01DX015 (ip), vehicle: saline",101 % of control
same,T/C,"dose: 400.0 mg/kg/injection, schedule: Q04DX003 (ip), vehicle: carboxymethylcellulose (CMC)",100 % of control
same,T/C,"dose: 480.0 mg/kg/injection, schedule: Q01DX015 (ip), vehicle: carboxymethylcellulose (CMC)",96 % of control
OC(c1cc(-c2cccc(Cl)c2)nc2ccccc12)C1CCCCN1 (stereo not given),T/C,"dose: 50.0 mg/kg/injection, schedule: Q01DX001 (ip), vehicle: carboxymethylcellulose (CMC)",92 % of control
same,T/C,[7],90 % of control
same,T/C,[8],95 % of control
CC[C@@]1(O)C[C@H](OC2CC(N(C)C)C(O)C(C)O2)c2c(O)c3c(c(O)c2[C@H]1OC1CC(N(C)C)C(O)C(C)O1)C(=O)c1cccc(O)c1C3=O (stereo not given in full),T/C,"dose: 0.5 mg/kg/injection, schedule: Q01DX009 (ip), vehicle: saline",110 % of control
COc1ccc(C=C2CCC2)cc1,T/C,"dose: 100.0 mg/kg/injection, schedule: Q04DX003 (ip), vehicle: gum acacia",95 % of control
same,T/C,"dose: 200.0 mg/kg/injection, schedule: Q04DX003 (ip), vehicle: gum acacia",99 % of control
same,T/C,"dose: 400.0 mg/kg/injection, schedule: Q04DX003 (ip), vehicle: gum acacia",99 % of control
Cc1ccc(NC(=O)Oc2cccc(C(F)(F)F)c2)cc1,T/C,[3],100 % of control
same,T/C,[4],98 % of control
same,T/C,[5],100 % of control
C=C1CC(c2ccc(S(=O)(=O)N(CC)CC)cc2)OC1=O (stereo not given),T/C,"dose: 25.0 mg/kg/injection, schedule: Q01DX005 (ip), vehicle: Klucel (hydroxypropylcellulose) (HPC)",89 % of control
same,T/C,"dose: 25.0 mg/kg/injection, schedule: Q01DX009 (ip), vehicle: Klucel (hydroxypropylcellulose) (HPC)",98 % of control
same,T/C,"dose: 25.0 mg/kg/injection, schedule: Q04DX002 (ip), vehicle: Klucel (hydroxypropylcellulose) (HPC)",96 % of control
same,T/C,"dose: 50.0 mg/kg/injection, schedule: Q01DX005 (ip), vehicle: Klucel (hydroxypropylcellulose) (HPC)",92 % of control
same,T/C,"dose: 50.0 mg/kg/injection, schedule: Q01DX009 (ip), vehicle: Klucel (hydroxypropylcellulose) (HPC)",94 % of control
same,T/C,"dose: 50.0 mg/kg/injection, schedule: Q04DX002 (ip), vehicle: Klucel (hydroxypropylcellulose) (HPC)",96 % of control
same,T/C,"dose: 100.0 mg/kg/injection, schedule: Q01DX005 (ip), vehicle: Klucel (hydroxypropylcellulose) (HPC)",96 % of control
same,T/C,[3],98 % of control
same,T/C,"dose: 100.0 mg/kg/injection, schedule: Q04DX002 (ip), vehicle: Klucel (hydroxypropylcellulose) (HPC)",96 % of control
CCCC(C)OC(=O)Nc1cccc(O)c1 (stereo not given),T/C,[1],101 % of control
same,T/C,[2],101 % of control
same,T/C,"dose: 400.0 mg/kg/injection, schedule: Q01DX009 (ip), vehicle: saline with Tween-80",102 % of control
